Key:
[1] = molecular target: Delta-type opioid receptor (Homo sapiens, UniProt P41143); type: cell membranes, HEK293, Membrane; settings: hek293; further: in other assays of this panel Not Active means under 50% inhibition at 10 µM
[2] = molecular target: T1, Adenosine receptor A3 (Homo sapiens, UniProt P0DMS8); type: cell membranes, CHO-K1, Membrane; settings: cho-k1;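 further: radioligand binding assay with AB-MECA serving as the labeled ligand; in other assays of this panel Not Active means under 50% inhibition at 10 µM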
T1 sequence (P0DMS8 whole entry): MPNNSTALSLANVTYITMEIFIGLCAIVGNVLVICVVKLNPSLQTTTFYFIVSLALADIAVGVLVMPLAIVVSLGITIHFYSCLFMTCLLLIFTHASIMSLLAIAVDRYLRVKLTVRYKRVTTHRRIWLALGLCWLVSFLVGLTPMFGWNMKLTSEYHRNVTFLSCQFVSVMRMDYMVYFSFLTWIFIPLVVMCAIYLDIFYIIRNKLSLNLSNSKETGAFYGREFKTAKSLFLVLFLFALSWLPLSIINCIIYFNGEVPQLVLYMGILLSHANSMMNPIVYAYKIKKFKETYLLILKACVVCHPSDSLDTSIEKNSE

[3] = molecular target: T2, C-C chemokine receptor type 4 (Homo sapiens, UniProt P51679); type: cell membranes, Membrane; settings: chem-1; further: in other assays of this panel Not Active means under 50% inhibition at 10 µM
T2 sequence (P51679 whole entry): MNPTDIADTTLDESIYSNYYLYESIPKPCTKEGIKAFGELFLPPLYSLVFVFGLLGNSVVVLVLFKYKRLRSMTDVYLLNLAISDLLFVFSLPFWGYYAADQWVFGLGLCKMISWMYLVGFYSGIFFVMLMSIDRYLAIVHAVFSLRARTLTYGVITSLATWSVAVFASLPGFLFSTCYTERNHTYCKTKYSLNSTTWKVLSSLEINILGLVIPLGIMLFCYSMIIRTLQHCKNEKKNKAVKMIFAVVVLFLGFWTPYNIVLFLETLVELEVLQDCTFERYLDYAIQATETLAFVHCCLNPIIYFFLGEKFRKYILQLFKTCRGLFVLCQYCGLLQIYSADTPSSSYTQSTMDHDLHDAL

[4] = DRUGMATRIX: Interleukin IL-1 radioligand binding (ligand: [125I] interleukin 1beta); type: cell membranes, Membrane; settings: nih3t3; Not Active = under 50% inhibition at 10 µM
[5] = molecular target: Estrogen receptor beta (Homo sapiens, UniProt Q92731); settings: sf9; further: in other assays of this panel Not Active means under 50% inhibition at 10 µM
[6] = molecular target: Beta-3 adrenergic receptor (Homo sapiens, UniProt P13945); assay: DRUGMATRIX: Adrenergic beta3 radioligand binding (ligand: [125I] Cyanopindolol); type: cell membranes, HEK293, Membrane; settings: hek293; Not Active = under 50% inhibition at 10 µM
[7] = molecular target: Acetylcholinesterase (Homo sapiens, UniProt P22303); assay: DRUGMATRIX: Acetylcholinesterase enzyme inhibition (substrate: acetylthiocholine); type: cell-based, HEK293; settings: hek293; Not Active = under 50% inhibition at 10 µM
[8] = molecular target: T3, D(4) dopamine receptor (Homo sapiens, UniProt P21917); assay: DRUGMATRIX: Dopamine D4.2 radioligand binding (ligand: [3H] Spiperone); type: cell membranes, CHO-K1, Membrane; settings: cho-k1; Not Active = under 50% inhibition at 10 µM
T3 sequence (P21917 whole entry): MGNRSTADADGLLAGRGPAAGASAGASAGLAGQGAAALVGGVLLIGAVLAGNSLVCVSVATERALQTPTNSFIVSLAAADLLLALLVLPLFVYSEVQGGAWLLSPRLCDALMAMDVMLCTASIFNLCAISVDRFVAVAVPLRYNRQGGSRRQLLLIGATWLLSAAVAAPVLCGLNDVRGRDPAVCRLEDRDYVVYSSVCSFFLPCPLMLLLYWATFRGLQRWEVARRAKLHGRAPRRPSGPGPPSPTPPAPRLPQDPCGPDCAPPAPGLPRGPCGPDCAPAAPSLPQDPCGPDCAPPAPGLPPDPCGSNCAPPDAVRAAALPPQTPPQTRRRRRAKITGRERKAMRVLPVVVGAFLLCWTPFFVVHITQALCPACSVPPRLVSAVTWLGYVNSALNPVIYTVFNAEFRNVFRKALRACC

[9] = molecular target: Mu-type opioid receptor (Homo sapiens, UniProt P35372); assay: DRUGMATRIX: Opiate mu (OP3, MOP) radioligand binding (ligand: [3H] Diprenorphine); type: cell membranes, CHO-K1, Membrane; settings: cho-k1; Not Active = under 50% inhibition at 10 µM
[10] = molecular target: Cytochrome P450 2D6 (Homo sapiens, UniProt P10635); settings: bti-tn-5b1-4; further: in other assays of this panel Not Active means under 50% inhibition at 10 µM
[11] = molecular target: T4, Vasoactive intestinal polypeptide receptor 1 (Homo sapiens, UniProt P32241); type: cell membranes, Membrane; settings: ht-29; further: in other assays of this panel Not Active means under 50% inhibition at 10 µM
T4 sequence (P32241 whole entry): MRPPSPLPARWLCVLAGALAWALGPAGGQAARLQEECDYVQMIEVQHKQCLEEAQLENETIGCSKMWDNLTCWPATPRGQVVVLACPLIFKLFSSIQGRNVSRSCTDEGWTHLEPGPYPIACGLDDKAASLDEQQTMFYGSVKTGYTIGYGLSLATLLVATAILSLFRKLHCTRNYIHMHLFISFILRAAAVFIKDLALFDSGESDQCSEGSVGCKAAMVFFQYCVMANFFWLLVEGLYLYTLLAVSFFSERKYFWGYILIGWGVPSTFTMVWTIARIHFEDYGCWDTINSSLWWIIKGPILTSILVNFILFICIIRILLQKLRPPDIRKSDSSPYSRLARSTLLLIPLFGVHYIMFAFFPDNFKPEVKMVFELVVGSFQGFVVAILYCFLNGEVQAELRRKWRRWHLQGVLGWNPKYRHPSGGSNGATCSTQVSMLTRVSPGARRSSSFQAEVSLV

[12] = molecular target: T5, Cholecystokinin receptor type A (Homo sapiens, UniProt P32238); type: cell membranes, Membrane; settings: 1321-n1; further: in other assays of this panel Not Active means under 50% inhibition at 10 µM
T5 sequence (P32238 whole entry): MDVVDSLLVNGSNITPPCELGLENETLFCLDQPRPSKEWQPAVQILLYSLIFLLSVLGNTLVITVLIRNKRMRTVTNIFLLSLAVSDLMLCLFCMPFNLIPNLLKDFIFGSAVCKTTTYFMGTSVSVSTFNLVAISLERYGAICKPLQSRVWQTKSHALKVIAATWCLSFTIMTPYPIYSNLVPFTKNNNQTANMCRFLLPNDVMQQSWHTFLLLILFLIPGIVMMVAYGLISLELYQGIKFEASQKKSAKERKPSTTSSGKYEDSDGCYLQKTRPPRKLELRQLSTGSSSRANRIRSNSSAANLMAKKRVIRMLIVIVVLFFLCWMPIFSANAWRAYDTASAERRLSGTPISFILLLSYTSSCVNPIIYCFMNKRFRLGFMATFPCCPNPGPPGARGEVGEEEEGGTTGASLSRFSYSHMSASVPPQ

[13] = DRUGMATRIX: Leukotriene, BLT (LTB4) radioligand binding (ligand: [3H]LTB4); type: cell membranes, Membrane; settings: u-937; Not Active = under 50% inhibition at 10 µM

Sequence of Mu-type opioid receptor (P35372 whole entry): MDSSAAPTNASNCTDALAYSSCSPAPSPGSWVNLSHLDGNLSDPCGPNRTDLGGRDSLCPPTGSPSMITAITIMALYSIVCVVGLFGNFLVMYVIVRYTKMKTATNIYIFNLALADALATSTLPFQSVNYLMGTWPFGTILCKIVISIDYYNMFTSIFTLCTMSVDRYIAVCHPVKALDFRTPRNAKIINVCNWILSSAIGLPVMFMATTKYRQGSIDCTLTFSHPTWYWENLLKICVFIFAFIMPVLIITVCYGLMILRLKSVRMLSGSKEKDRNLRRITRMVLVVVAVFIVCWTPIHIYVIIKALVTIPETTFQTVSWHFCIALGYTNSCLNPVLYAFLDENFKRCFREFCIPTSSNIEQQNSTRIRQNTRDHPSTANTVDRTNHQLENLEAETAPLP
Sequence of Estrogen receptor beta (Q92731 whole entry): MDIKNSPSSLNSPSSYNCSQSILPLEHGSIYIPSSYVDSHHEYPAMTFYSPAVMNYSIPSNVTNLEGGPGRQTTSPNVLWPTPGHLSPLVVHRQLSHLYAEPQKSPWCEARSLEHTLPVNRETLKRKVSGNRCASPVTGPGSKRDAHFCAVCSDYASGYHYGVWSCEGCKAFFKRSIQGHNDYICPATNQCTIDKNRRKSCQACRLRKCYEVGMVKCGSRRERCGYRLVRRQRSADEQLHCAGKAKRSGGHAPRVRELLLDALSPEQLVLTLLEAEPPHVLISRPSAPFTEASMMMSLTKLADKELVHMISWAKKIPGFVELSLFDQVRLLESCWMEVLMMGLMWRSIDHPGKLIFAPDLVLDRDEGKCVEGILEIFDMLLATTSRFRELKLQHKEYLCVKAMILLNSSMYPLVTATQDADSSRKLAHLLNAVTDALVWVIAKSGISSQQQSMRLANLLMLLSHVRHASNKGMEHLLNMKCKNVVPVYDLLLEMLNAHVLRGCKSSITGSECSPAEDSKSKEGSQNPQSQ
Sequence of Delta-type opioid receptor (P41143 whole entry): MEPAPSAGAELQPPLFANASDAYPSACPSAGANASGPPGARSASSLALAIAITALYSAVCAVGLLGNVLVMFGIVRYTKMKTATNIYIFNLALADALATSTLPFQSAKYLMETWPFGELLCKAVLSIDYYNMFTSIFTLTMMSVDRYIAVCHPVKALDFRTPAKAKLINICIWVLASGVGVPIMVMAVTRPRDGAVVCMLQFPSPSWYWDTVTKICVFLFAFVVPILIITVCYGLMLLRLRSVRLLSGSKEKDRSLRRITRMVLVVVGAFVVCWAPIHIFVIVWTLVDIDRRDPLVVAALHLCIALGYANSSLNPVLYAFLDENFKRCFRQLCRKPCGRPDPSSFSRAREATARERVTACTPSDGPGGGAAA
Sequence of Acetylcholinesterase (P22303 whole entry): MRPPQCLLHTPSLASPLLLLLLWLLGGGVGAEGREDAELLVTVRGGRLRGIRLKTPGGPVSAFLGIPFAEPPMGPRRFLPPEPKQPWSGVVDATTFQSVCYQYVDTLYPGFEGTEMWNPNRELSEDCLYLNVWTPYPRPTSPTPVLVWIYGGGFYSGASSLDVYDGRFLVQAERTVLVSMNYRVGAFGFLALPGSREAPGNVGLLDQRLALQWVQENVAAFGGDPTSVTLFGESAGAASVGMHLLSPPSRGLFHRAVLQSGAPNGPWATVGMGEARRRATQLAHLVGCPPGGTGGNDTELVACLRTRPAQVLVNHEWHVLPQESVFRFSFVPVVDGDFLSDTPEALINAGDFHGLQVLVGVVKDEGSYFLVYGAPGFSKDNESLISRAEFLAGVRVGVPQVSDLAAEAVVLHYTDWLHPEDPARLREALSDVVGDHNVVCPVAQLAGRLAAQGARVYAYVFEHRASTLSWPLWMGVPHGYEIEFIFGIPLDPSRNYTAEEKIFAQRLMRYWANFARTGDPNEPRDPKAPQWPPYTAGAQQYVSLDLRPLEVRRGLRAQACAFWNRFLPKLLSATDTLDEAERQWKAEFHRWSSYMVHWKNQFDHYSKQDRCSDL
Sequence of Beta-3 adrenergic receptor (P13945 whole entry): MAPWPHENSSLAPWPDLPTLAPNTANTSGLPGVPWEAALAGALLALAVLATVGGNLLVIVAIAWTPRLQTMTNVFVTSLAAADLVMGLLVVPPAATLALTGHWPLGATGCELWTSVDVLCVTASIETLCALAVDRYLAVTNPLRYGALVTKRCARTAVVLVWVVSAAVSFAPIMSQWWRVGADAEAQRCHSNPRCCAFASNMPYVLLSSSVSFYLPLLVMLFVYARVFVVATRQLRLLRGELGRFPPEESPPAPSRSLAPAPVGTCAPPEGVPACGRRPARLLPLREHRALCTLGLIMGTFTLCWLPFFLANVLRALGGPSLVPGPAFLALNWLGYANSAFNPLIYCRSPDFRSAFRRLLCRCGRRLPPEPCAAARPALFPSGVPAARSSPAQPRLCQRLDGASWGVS
Sequence of Cytochrome P450 2D6 (P10635 whole entry): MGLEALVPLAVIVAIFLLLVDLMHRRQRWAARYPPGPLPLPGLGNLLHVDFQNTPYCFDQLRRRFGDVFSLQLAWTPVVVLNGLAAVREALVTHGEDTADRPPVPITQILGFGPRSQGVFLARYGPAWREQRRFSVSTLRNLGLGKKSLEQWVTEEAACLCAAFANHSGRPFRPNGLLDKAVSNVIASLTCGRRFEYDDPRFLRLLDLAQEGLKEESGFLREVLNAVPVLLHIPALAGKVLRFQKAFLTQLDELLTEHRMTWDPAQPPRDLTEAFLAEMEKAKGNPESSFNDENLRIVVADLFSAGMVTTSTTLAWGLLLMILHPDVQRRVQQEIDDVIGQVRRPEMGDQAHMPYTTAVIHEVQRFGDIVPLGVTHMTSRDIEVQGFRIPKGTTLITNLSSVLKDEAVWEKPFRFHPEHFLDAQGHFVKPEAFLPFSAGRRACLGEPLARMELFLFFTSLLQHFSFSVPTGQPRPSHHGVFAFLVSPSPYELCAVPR

O=c1[nH]cc(F)c(=O)[nH]1 [FLUOROURACIL]
Not Active: IC50 [1] | IC50 [2] | IC50 [3] | IC50 [4] | Ki [4] | IC50 [5] | IC50 [6] | IC50 [7] | IC50 [8] | IC50 [9] | IC50 [10] | Ki [10] | IC50 [11] | IC50 [12] | IC50 [13] | Ki [13]

O=C1OC2(c3ccc(O)cc3Oc3cc(O)ccc32)c2ccccc21 [FLUORESCEIN]
Not Active: IC50 [1] | IC50 [2] | IC50 [3] | IC50 [4] | Ki [4] | IC50 [5] | IC50 [6] | IC50 [7] | IC50 [8] | IC50 [9] | IC50 [10] | Ki [10] | IC50 [11] | IC50 [12] | IC50 [13] | Ki [13]

COC1=CC(=O)C[C@@H](C)[C@]12Oc1c(Cl)c(OC)cc(OC)c1C2=O [GRISEOFULVIN]
Not Active: IC50 [1] | IC50 [2] | IC50 [3] | IC50 [4] | Ki [4] | IC50 [5] | IC50 [6] | IC50 [7] | IC50 [8] | IC50 [9] | IC50 [10] | Ki [10] | IC50 [11] | IC50 [12] | IC50 [13] | Ki [13]
